Each structure is given as a SMILES string. Structures can show the parent of a compound that is named as a salt.

Chain of KRas G12C (P01116 1-188 isoform P01116-2 G12C): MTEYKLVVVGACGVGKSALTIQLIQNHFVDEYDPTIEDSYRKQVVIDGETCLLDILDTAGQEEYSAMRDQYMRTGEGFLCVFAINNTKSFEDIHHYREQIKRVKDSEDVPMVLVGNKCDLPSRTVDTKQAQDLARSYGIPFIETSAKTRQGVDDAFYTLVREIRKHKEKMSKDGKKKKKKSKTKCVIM

The test concerns the target KRas G12C (Homo sapiens, UniProt P01116, G12C). Nature of the test: Cellular inhibition of KRas G12C measured by Phospho-ERK in NCI-H358 cells. The following applies: pERK(Thr202/Tyr204) normalized with GAPDH, NCI-H358 cells, 3 hours; read-out: IC50. Format: cell-based. A digest of the protocol:
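Ratio of phospho-ERK(Thr202/Tyr204) to GAPDH, read by near-infrared secondary antibodies on fixed, permeabilised NCI-H358 cells, expressed relative to DMSO control. Compound exposure was 3 h at 0.5% DMSO. IC50 values come from 4-parameter curve fits.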
With `C=CC(=O)N1CCN(c2nc(OC[C@H]3CCCN3CCO)nc3c2CCN(c2cccc4ccccc24)C3)CC1CC#N` (stereo partly drawn) [Example 304, 2-[4-[2-[[(2R)-1-(2-hydroxyethyl)pyrrolidin-2-yl]methoxy]-7-(1-naphthyl)-6,8-dihydro-5H-pyrido[3,4-d]pyrimidin-4-yl]-1-prop-2-enoyl-piperazin-2-yl]acetonitrile], the IC50 lay within 0.1 to 1000 nM. The figure for `C=CC(=O)N1CCN(c2nc(OCC(C)N(C)C)nc3c2CCN(c2cc(O)cc4ccccc24)C3)CC1` (stereo not shown) [Example 73, 1-(4-(2-(2-(dimethylamino)propoxy)-7-(3-hydroxynaphthalen-1-yl)-5,6,7,8-tetrahydropyrido[3,4-d]pyrimidin-4-yl)piperazin-1-yl)prop-2-en-1-one] is over 1000 nM; for `C=CC(=O)N1CCN(c2nc(OCCc3ccccn3)nc3c2CCN(c2cc(O)cc4ccccc24)C3)CC1` [Example 126, 1-(4-(7-(3-hydroxynaphthalen-1-yl)-2-(2-(pyridin-2-yl)ethoxy)-5,6,7,8-tetrahydropyrido[3,4-d]pyrimidin-4-yl)piperazin-1-yl)prop-2-en-1-one trifluoroacetate] it is over 1000 nM.

As for `C=CC(=O)N1CCN(c2nc(O[C@H](C)CN(C)C)nc3c2CCN(c2cc(O)cc(OC(F)(F)F)c2)C3)CC1` [Example 91, (R)-1-(4-(2-((1-(dimethylamino)propan-2-yl)oxy)-7-(3-hydroxy-5-(trifluoromethoxy)phenyl)-5,6,7,8-tetrahydropyrido[3,4-d]pyrimidin-4-yl)piperazin-1-yl)prop-2-en-1-one], the IC50 is over 1000 nM.

Consider `C=C(NC(C)=O)C(=O)N1CCN(c2nc(OC[C@@H]3CCCN3C)nc3c2CCN(c2cccc4cccc(C)c24)C3)C[C@@H]1CC#N` [Example 525, N-(3-((S)-2-(cyanomethyl)-4-(7-(8-methylnaphthalen-1-yl)-2-(((S)-1-methylpyrrolidin-2-yl)methoxy)-5,6,7,8-tetrahydropyrido [3,4-d]pyrimidin-4-yl)piperazin-1-yl)-3-oxoprop-1-en-2-yl)acetamide], for which the IC50 fell in the range of 0.1 to 1000 nM. The figure for `C=CC(=O)N1CCN(c2nc(N3CCOCC3)nc3c2CCN(c2cc(O)cc4ccccc24)C3)CC1` [Example 118, 1-(4-(7-(3-hydroxynaphthalen-1-yl)-2-morpholino-5,6,7,8-tetrahydropyrido[3,4-d]pyrimidin-4-yl)piperazin-1-yl)prop-2-en-1-one] is over 1000 nM; for `C=C(C(=O)N1CCN(c2nc(OC[C@@H]3CCCN3C)nc3c2CCN(c2cccc4cccc(C)c24)C3)C[C@@H]1CC#N)C(F)(F)F` [Example 492, 2-((S)-4-(7-(8-methylnaphthalen-1-yl)-2-(((S)-1-methylpyrrolidin-2-yl)methoxy)-5,6,7,8-tetrahydropyrido[3,4-d]pyrimidin-4-yl)-1-(2-(trifluoromethyl)acryloyl)piperazin-2-yl)acetonitrile] it is 0.1 to 1000 nM. Regarding `C=CC(=O)N1CCN(c2nc(OC[C@@H]3CCCN3C(C)C)nc3c2CCN(c2cccc4ccccc24)C3)CC1CC#N` (stereo partly drawn) [Example 285, 2-[4-[2-[[(2S)-1-isopropylpyrrolidin-2-yl]methoxy]-7-(1-naphthyl)-6,8-dihydro-5H-pyrido[3,4-d]pyrimidin-4-yl]-1-prop-2-enoyl-piperazin-2-yl]acetonitrile], the IC50 was in the range of 0.1 to 1000 nM.

`C=CC(=O)N1CCN(c2ncnc3c2CCN(c2cncc4ccccc24)C3)CC1` [Example 69, 1-(4-(7-(isoquinolin-4-yl)-5,6,7,8-tetrahydropyrido[3,4-d]pyrimidin-4-yl)piperazin-1-yl)prop-2-en-1-one]: the half-inhibitory concentration (IC50) was over 1000 nM.

For `C=CC(=O)N1CCN(c2nc(O[C@H](C)[C@H]3CCCN3C)nc3c2CCN(c2cc(O)cc4ccccc24)C3)C[C@@H]1CC#N` [Example 348, 2-[(2S)-4-[7-(3-hydroxy-1-naphthyl)-2-[(1R)-1-[(2R)-1-methylpyrrolidin-2-yl]ethoxy]-6,8-dihydro-5H-pyrido[3,4-d]pyrimidin-4-yl]-1-prop-2-enoyl-piperazin-2-yl]acetonitrile], the IC50 was in the range of 0.1 to 1000 nM.

For `C=C(F)C(=O)N1CCN(c2nc(OC[C@@H]3CCCN3C)nc3c2CCN(c2c(C)ncc4ccccc24)C3)C[C@@H]1CC#N` [Example 617], the IC50 was over 1000 nM. Regarding `C=CC(=O)N1CCN(c2nc(OCCCN3CCOCC3)nc3c2CCN(c2cc(O)cc4ccccc24)C3=O)CC1` [Example 121, 4-(4-acryloylpiperazin-1-yl)-7-(3-hydroxynaphthalen-1-yl)-2-(3-morpholinopropoxy)-6,7-dihydropyrido[3,4-d]pyrimidin-8(5H)-one], the IC50 was over 1000 nM.

Regarding `C=C(F)C(=O)N1CCN(c2nc(OC[C@@H]3CCCN3C)nc3c2CCN(c2cccc4cccc(Cl)c24)C3)[C@@H](C(F)F)C1` [Example 621, 1-[(3R)-4-[7-(8-chloro-1-naphthyl)-2-[[(2S)-1-methylpyrrolidin-2-yl]methoxy]-6,8-dihydro-5H-pyrido[3,4-d]pyrimidin-4-yl]-3-(difluoromethyl)piperazin-1-yl]-2-fluoro-prop-2-en-1-one], the IC50 was over 1000 nM. As to `C=CC(=O)N1CCN(c2nc(O[C@H](C)[C@H]3CCCN3C)nc3c2CCN(c2cc(O)cc4ccccc24)C3)CC1` [Example 129, 1-[4-[7-(3-hydroxy-1-naphthyl)-2-[(1R)-1-[(2R)-1-methylpyrrolidin-2-yl]ethoxy]-6,8-dihydro-5H-pyrido[3,4-d]pyrimidin-4-yl]piperazin-1-yl]prop-2-en-1-one], the IC50 lay in the range of 0.1 to 1000 nM. The figure for `C=CC(=O)N1CCN(c2nc(OC[C@@H]3CCCN3C)nc3c2CCN(c2nccc4ccccc24)C3)CC1CC#N` (stereo partly drawn) [Example 258, 2-[4-[7-(1-isoquinolyl)-2-[[(2S)-1-methylpyrrolidin-2-yl]methoxy]-6,8-dihydro-5H-pyrido[3,4-d]pyrimidin-4-yl]-1-prop-2-enoyl-piperazin-2-yl]acetonitrile] is over 1000 nM. The figure for `C=CC(=O)N1CCN(c2nc(OC[C@@H]3CCCN3C)nc3c2CCN(c2cccc4ccccc24)C3)CC1COC` (stereo partly drawn) [Example 429, 1-(2-(methoxymethyl)-4-(2-(((S)-1-methylpyrrolidin-2-yl)methoxy)-7-(naphthalen-1-yl)-5,6,7,8-tetrahydropyrido[3,4-d]pyrimidin-4-yl)piperazin-1-yl)prop-2-en-1-one] is over 1000 nM.

Consider `C=CC(=O)N1CCN(c2nc(OC[C@@H]3CCCN3C)nc3c2CCN(c2cccc4ccc(F)cc24)C3)C[C@@H]1CC#N` [Example 333, 2-[(2S)-4-[7-(7-fluoro-1-naphthyl)-2-[[(2S)-1-methylpyrrolidin-2-yl]methoxy]-6,8-dihydro-5H-pyrido[3,4-d]pyrimidin-4-yl]-1-prop-2-enoyl-piperazin-2-yl]acetonitrile], for which the IC50 lay in the range of 0.1 to 1000 nM.

Regarding `C=CC(=O)N1CCN(c2nc(O[C@H](C)CN(C)C)nc3c2CCN(c2c(C)ccc(F)c2O)C3)CC1` [Example 87, (R)-1-(4-(2-((1-(dimethylamino)propan-2-yl)oxy)-7-(3-fluoro-2-hydroxy-6-methylphenyl)-5,6,7,8-tetrahydropyrido[3,4-d]pyrimidin-4-yl)piperazin-1-yl)prop-2-en-1-one], the IC50 was over 1000 nM. As for `C=CC(=O)N1CCN(c2nc(OCC3CCN(C4CCCCC4)C3)nc3c2CCN(c2cc(O)cc4ccccc24)C3)CC1` (stereo not shown) [Example 132, 1-[4-[2-[(1-cyclohexylpyrrolidin-3-yl)methoxy]-7-(3-hydroxy-1-naphthyl)-6,8-dihydro-5H-pyrido[3,4-d]pyrimidin-4-yl]piperazin-1-yl]prop-2-en-1-one], the IC50 lay within 0.1 to 1000 nM.

On to `C=CC(=O)N1CCN(c2nc(O[C@H](C)CN(C)C)nc3c2CCN(c2cc(O)ccc2OC)C3)CC1` [Example 94, (R)-1-(4-(2-((1-(dimethylamino)propan-2-yl)oxy)-7-(5-hydroxy-2-methoxyphenyl)-5,6,7,8-tetrahydropyrido[3,4-d]pyrimidin-4-yl)piperazin-1-yl)prop-2-en-1-one], for which the IC50 is over 1000 nM. The figure for `C=CC(=O)N1CCN(c2nc(OCCN3C[C@@H]4CC[C@H]3C4)nc3c2CCN(c2cc(O)cc4ccccc24)C3)CC1` [Example 77, 1-(4-(2-(2-((1S,4R)-2-azabicyclo[2.2.1]heptan-2-yl)ethoxy)-7-(3-hydroxynaphthalen-1-yl)-5,6,7,8-tetrahydropyrido[3,4-d]pyrimidin-4-yl)piperazin-1-yl)prop-2-en-1-one] is 0.1 to 1000 nM; for `C=CC(=O)N1CCN(c2nc(OC[C@@H]3CCCN3C)nc3c2CCN(c2cccc4ccc(C)cc24)C3)C[C@@H]1CC#N` [Example 326, 2-((S)-1-acryloyl-4-(7-(7-methylnaphthalen-1-yl)-2-(((S)-1-methylpyrrolidin-2-yl)methoxy)-5,6,7,8-tetrahydropyrido[3,4-d]pyrimidin-4-yl)piperazin-2-yl)acetonitrile] it is 0.1 to 1000 nM.

In the case of `C=CC(=O)N1CCN(c2nc(OC[C@@H]3CCCN3C)nc3c2CCN(c2ccccc2C(F)(F)F)C3)C[C@@H]1CC#N` [Example 379, 2-((S)-1-acryloyl-4-(2-(((S)-1-methylpyrrolidin-2-yl)methoxy)-7-(2-(trifluoromethyl)phenyl)-5,6,7,8-tetrahydropyrido[3,4-d]pyrimidin-4-yl)piperazin-2-yl)acetonitrile], the IC50 lay in the range of 0.1 to 1000 nM. As for `C=CC(=O)N1CCN(c2nc(OCCCN3C[C@@H]4C[C@H]3CO4)nc3c2CCN(c2cccc4ccccc24)C3)CC1CC#N` (stereo partly drawn) [Example 154, 2-[4-[7-(1-naphthyl)-2-[3-[(1S,4S)-2-oxa-5-azabicyclo[2.2.1]heptan-5-yl]propoxy]-6,8-dihydro-5H-pyrido[3,4-d]pyrimidin-4-yl]-1-prop-2-enoyl-piperazin-2-yl] acetonitrile], the IC50 fell in the range of 0.1 to 1000 nM. For `C=C(F)C(=O)N1CCN(c2ncnc3c2CCN(c2cccc4cccc(C)c24)C3)C[C@@H]1CC#N` [Example 611, (S)-2-(1-(2-fluoroacryloyl)-4-(7-(8-methylnaphthalen-1-yl)-5,6,7,8-tetrahydropyrido[3,4-d]pyrimidin-4-yl)piperazin-2-yl)acetonitrile], the IC50 was over 1000 nM.

Usually IC50 stands for the concentration at which inhibition is half-maximal.

Source of the values: patent US10689377B2 (Mirati Therapeutics, Inc., priority 2017, dated 2020).
